# Article PMC12035805, “A Water-Soluble Aggregation-Induced Emission Photosensitizer with Intrinsic Antibacterial Activity as an Antiplanktonic and Antibiofilm Therapeutic Agent” (Journal of Medicinal Chemistry, 2025)
# Columns and labels:
# [1] = Cytotoxicity (MTT) assay against HFF-1 cells; type: cell-based; conditions: human, no irradiation, read-out: 50% cytotoxicity concentration (CC50) against HFF-1 cells
# Procedure: The cytotoxicity of TPA-1, TPA-0, and TPA-NC-1 against HFF-1 cells was evaluated using the 3-(4,5-dimethylthiazol-2-yl)-2,5-diphenyltetrazolium bromide (MTT) assay kit from ThermoFisher Scientific. In general, HFF-1 cells (MEM, 10% FBS, and 1% penicillin-streptomycin) were seeded in a 96-well plate with a density of 3000 cells/well overnight at 37 °C with 5% CO2. Then, the cells were treated with different concentrations of compounds for 24 h. MTT (10 μL, 5 mg/mL) was added to the medium, and the cells were further incubated for 3 h. The medium was then replaced by DMSO (100 μL). After gently shaking the plate for 30 s, the optical density of the solutions at 570 nm was measured by a BMG Labtech CLARIOstar microplate reader. The cell viability was calculated as (ODcompound – ODDMSO)/(ODmedium - ODDMSO) × 100% where ODcompound, ODmedium, and ODDMSO are the optical densities of the treated cell, nontreated cells, and DMSO at 570 nm, respectively. The experiment was conducted in triplicate. The CC50 values were calculated using GraphPad Prism 8.
# P. aeruginosa biofilm = assay: Photodynamic eradication of biofilm bacteria; type: cell-based, Pseudomonas aeruginosa; conditions: light irradiation at 600 nm for 45 min
# Procedure: For biofilm bacteria, overnight culture of S. aureus or P. aeruginosa was diluted to 1 × 10^5 CFU/mL in TSB (with 1% glucose). Portion of 100 μL of the diluted bacteria culture was added to the wells of a 96-well plate. The plate was incubated under darkness for 24 h at 37 °C. Then, the planktonic bacterial suspensions were removed from the wells. The biofilms were washed with PBS (3 times) to remove any remaining planktonic bacteria. Different concentrations of TPA-1 were dissolved in PBS. TPA-1 solution was added to the biofilms (120 μL for S.aureus, 150 μL for P.aeruginosa). After 20 min of incubation under darkness at 30 °C, the biofilms were kept in the dark or irradiated by 600 nm light (60 mW/cm^2) for 15, 30, and 45 min. After that, the TPA-1 solution was replaced by 120 μL of PBS. The biofilm was then suspended in PBS by scratching, followed by sonication (5 min, ≤42 kHz) and vortex (5 min, 950 rpm). The number of viable bacteria was determined by the plate counting method. All experiments were carried out in triplicate.
# S. aureus mature biofilm = S. aureus mature biofilm eradication assay in the dark; type: cell-based, Staphylococcus aureus; conditions: 24 h
# Procedure: For biofilm eradication assay, overnight culture of S. aureus in TSB under darkness was diluted to 1 × 10^5 CFU/mL in TSB (with 1% glucose). 100 μL of the diluted culture was transferred to each well of a 96-well plate. The plate was kept at 37 °C for 24 h under darkness to form mature biofilms. The medium was removed, and the biofilms were washed with 200 μL of PBS (3 times). 100 μL of the premixed TPA-1 solutions in TSB (with 1% glucose) were added to the wells. The plate was further incubated for 24 h under darkness and subjected to the crystal violet assay as stated in the biofilm inhibition assay. The biofilm survival rate (%) was calculated as (ODTPA-1 – ODblank)/(ODmedium – ODblank) × 100% where ODTPA-1, ODmedium, and ODblank were the absorbances of the wells with bacteria treated TPA-1, with bacteria without treatment and with medium only, respectively. The experiment was performed in triplicate.
# planktonic P. aeruginosa = assay: Photodynamic eradication of planktonic bacteria; type: cell-based, Pseudomonas aeruginosa; conditions: 2 μM, 600 nm (60 mW/cm^2)
# Procedure: For planktonic bacteria, an overnight culture of S. aureus or P. aeruginosa was diluted 100 times in TSB and grown to OD = 1. The bacteria cultures were then diluted to […] in PBS. TPA-1 (2 μM) was added to the diluted cultures and incubated under darkness for 20 min at 30 °C. Bacterial cultures of 200 μL were transferred to the wells of a 96-well plate. The plate was irradiated by 600 nm light (60 mW/cm^2) for 30 and 45 min. Then, the bacterial cultures were serially diluted, and the number of viable bacteria was counted using the plate counting method.
# [2] = system: P. aeruginosa (ATCC 27853); assay: Wound infection mouse model, P. aeruginosa biofilm; type: in vivo; conditions: mice, topical 90 μM, 600 nm 15 min, every 24 h for 4 days (TPA-1 + L)
# Procedure: All in vivo experiments were approved by the Department of Science and Technology of Zhejiang Province (SYXK(Zhejiang)2021-0043). Female BALB/c mice (10–12 weeks old) were kept in 12 h light and 12 h dark cycle with access to free food and water for 7 days before and throughout the experiment. The backs of the mice were shaved and disinfected with iodine. A full-thickness circular wound (7 mm in diameter) was then created at the back of the mice. The mice were allowed to recover for 24 h after surgery to prevent sepsis.[65] Ten μL of 1× 10^8 CFU/mL MRSA (ATCC 43300) or P. aeruginosa (ATCC 27853) in saline was added to the wound. The wound was covered with an adhesive dressing for 24 h of infection. Next, the mice were randomly divided into four groups: (1) 50 μL TPA-1 (90 μM) with 600 nm light irradiation (60 mW/cm^2) for 15 min, (2) 50 μL TPA-1 (90 μM) in dark, (3) 50 μL saline with 600 nm light irradiation (60 mW/cm^2) for 15 min, and (4) 50 μL saline in dark. For light irradiation groups, TPA-1 and saline were incubated on the wound for 10 min before irradiation. The treatment was sustained for 4 days. The wound size and body weight of the mice were recorded every day. On day 6, the mice were euthanatized, and the wound tissue was collected. […] The other half of the tissue was homogenized, and the number of viable bacteria was measured by the plate counting method.
# S. aureus DNA gyrase = target: T1, S. aureus DNA gyrase (Staphylococcus aureus, UniProt P0A0K8+P20831); assay: S. aureus DNA gyrase supercoiling inhibition assay; type: biochemical; conditions: relaxed pBR322, 37 °C, 30 min, agarose gel
# T1 construct: purchased Inspiralis
# Procedure: The assay was conducted using an S. aureus gyrase supercoiling assay kit from Inspiralis. In general, relaxed bacterial plasmid (pBR322), S. aureus gyrase, and different concentrations of TPA-1 were mixed and incubated at 37 °C for 30 min. The mixtures were then quenched and subjected to electrophoresis (1% agarose gel, 75 V, 2 h). The gel image was captured with the Bio-Rad ChemiDoc imaging system.
# T1 sequence (P20831 whole entry): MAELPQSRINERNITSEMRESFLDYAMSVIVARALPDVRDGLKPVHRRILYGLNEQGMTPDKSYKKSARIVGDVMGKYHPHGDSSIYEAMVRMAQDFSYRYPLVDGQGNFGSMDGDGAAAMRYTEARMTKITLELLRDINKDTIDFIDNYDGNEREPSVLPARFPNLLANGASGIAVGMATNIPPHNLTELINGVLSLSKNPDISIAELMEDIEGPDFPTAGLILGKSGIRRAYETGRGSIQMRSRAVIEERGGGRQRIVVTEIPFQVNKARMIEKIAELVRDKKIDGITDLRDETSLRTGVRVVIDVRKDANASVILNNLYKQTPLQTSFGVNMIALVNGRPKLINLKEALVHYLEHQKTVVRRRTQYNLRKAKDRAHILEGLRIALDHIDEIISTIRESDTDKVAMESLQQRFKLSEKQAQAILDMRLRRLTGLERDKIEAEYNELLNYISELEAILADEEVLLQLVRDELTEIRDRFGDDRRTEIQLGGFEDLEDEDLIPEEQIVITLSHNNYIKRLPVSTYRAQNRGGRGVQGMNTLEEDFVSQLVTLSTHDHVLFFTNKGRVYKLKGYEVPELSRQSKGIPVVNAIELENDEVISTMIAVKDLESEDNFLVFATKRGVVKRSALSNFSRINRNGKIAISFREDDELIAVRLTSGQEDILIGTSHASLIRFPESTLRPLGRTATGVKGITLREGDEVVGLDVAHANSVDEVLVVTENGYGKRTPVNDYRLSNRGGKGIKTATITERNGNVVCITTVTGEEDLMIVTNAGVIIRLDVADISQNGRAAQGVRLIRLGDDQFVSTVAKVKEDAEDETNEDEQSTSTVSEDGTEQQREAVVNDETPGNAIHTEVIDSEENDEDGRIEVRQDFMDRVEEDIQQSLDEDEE
# T1 sequence (P0A0K8 whole entry): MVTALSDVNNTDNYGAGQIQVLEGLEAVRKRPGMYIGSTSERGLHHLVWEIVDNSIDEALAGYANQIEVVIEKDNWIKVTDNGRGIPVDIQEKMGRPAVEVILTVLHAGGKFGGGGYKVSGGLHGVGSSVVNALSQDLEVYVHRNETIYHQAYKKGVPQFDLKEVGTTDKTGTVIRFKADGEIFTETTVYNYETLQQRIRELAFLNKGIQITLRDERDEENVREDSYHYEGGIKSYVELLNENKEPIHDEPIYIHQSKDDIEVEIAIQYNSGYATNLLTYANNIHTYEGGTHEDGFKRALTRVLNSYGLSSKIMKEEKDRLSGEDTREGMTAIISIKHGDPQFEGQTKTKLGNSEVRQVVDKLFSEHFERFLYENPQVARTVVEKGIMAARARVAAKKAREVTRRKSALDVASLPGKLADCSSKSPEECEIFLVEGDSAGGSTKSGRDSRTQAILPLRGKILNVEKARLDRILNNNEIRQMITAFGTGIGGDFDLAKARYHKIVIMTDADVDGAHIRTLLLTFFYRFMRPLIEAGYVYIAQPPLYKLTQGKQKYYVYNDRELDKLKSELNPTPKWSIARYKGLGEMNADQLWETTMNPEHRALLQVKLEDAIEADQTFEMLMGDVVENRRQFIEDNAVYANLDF
smiles,measurement,setting,value
C#CCC[n+]1c(/C=C/c2ccc(-c3ccc(N(c4ccc(OCCC[N+](C)(C)C)cc4)c4ccc(OCCC[N+](C)(C)C)cc4)cc3)s2)sc2ccccc21.[Br-].[Br-].[Br-] [TPA-1],CC50 at 24 h,[1],260 ± 40 µM
same,P. aeruginosa biofilm log CFU/mL reduction,P. aeruginosa biofilm,2.6 ± 0.2 log CFU/mL
same,P. aeruginosa in the biofilm eradicated,P. aeruginosa biofilm,99.8% ± 0.1%
same,eradication of mature S. aureus biofilms without light,S. aureus mature biofilm,only limited ability to eradicate mature biofilms
same,planktonic P. aeruginosa eradicated,planktonic P. aeruginosa; 30 min,99.96% ± 0.03%
same,planktonic P. aeruginosa log CFU/mL reduction,planktonic P. aeruginosa; 30 min,3.4 ± 0.2 log CFU/mL
same,planktonic P. aeruginosa eradicated,planktonic P. aeruginosa; 45 min,> 99.99%
same,planktonic P. aeruginosa log CFU/mL reduction,planktonic P. aeruginosa; 45 min,> 5 log CFU/mL
same,P. aeruginosa eradicated in infected tissues,[2],96% ± 4%
same,P. aeruginosa log (CFU/mg tissue) reduction,[2],1.4 ± 0.4 log (CFU/mg tissue)
same,concentration at which the supercoiled DNA band completely disappears,S. aureus DNA gyrase,25 µM
